Entries after “also recorded” stand apart in the source; their conditions may differ. Structures can show the parent of a compound that is named as a salt.
Columns and labels:
[1] = test system: β2-adrenergic receptor over β1-adrenergic receptor; conditions: reported in literature; cited from earlier work
[2] = test system: HIF transcriptional activity in HeLa 9XHRE cells; test: HRE-luciferase reporter assay under DFO chemical hypoxia; assay type: cell-based, human; conditions: for luciferase activity induced by hypoxia (HIF transcriptional activity): 100 μM, 100 μM DFO
Excerpt: Angiogenesis is largely dependent of HIF transcription program, triggered in the presence of hypoxic condition, or as in the case of Von Hippel Lindau haemangioblastoma cells, due to the lack of VHL protein in charge of targeting HIF protein for its proteasome processing under normoxic conditions in wild type cells. A special peculiarity of hemangioblastoma cells, and clear cell kidney carcinoma cells, is that they constitutively express HIF protein, which is active, and is translocated to nucleus where it may bind and activates its gene targets such as: VEGF, PDGF, EPO, endoglin, several metalloproteases, carbonic anhydrase, Glut-1 and so on.

[3] = test system: VHL-derived hemangioblastoma cells (hemangiospheres); test: Hemangiospheres formation and culture; assay type: cell-based, human; conditions: 100 μM, 7 days
Description: VHL-derived hemangioblastoma cells were grown in suspension in phenol red free DMEM:F-12 medium with GlutaMAX, supplemented with B27, 20 ng/ml EGF, 20 ng/ml bFGF and 1% penicillin/streptomycin at 37° C. in 5% CO2. Single cell suspensions were plated at a density of 50.000 cells/ml in 75 cm^2 ultralow attachment flasks (Corning).

[4] = test system: HUVEC migration; test: Wound healing assay; assay type: cell-based, human; conditions: 100 μM, 6 hours
Description: FIG. 5. […] A. Functional in vitro tests for angiogenesis include “wound-healing” or plate-scratch, to follow the migration capacity of endothelial cells after short times. When a confluent monolayer is disrupted with the tip of a micropipette to create a discontinuity, endothelial cells normally migrate to cover the discontinuity “wound the healing” in a short time, depending on the size of the “wound” but normally, less than 8 hours. This test measures the migration by taking pictures at different times from the moment the wound is created. Only the final picture after 6 hours is shown. The migrated distance is quantified, and in the following graph the evolution is shown.
(§1) In vitro-scratched wounds were created by scraping confluent HUVEC-1 monolayers in P-24 plate wells with sterile disposable pipet tips.

[5] = test system: HUVECs tubulogenesis; test: Tube formation assay on Matrigel; assay type: cell-based, human; conditions: 100 μM, 3 hours
Excerpt: FIG. 6. […] Tubulogenesis is another in vitro test for angiogenesis. Endothelial cells cultured on matrigel have the property of building cell tube-like structures, which mimic the “vessels” structure. […] B. The number of closed cells (density network) is quantified and averaged from 5 different fields in each case. Bar histograms represent the mean±SD.
as §1

[6] = test system: primary cultures hemangioblastomas from patients (Vhl−/−); test: Cell viability measure (CellTiter-Glo); assay type: cell-based, human; conditions: for viability (ATP content) of the VHL−/− cells: 72 hours, hemangioblastoma primary cultures 18, 14 and 786-O vs HUVEC, HMEC (FIG. 9)
Description: (§2) Cell viability (cell proliferation, ATP content) was determined using the CellTiter-Glo Luminescent Cell Viability Assay kit (Promega) according to the supplier's instructions. […] Cell lysis was induced in an orbital shaker for 2 min, and then plates were incubated at room temperature for 10 min to stabilize the luminescent signal. Luminescence was measured using a GlomaxMultidetection System (Promega) Readings were normalized to control (100%).

[7] = test system: 786-O Vhl−/− ccRCC xenograft; assay type: in vivo; conditions: 10 mg/Kg daily intraperitoneally; 50-60 days after the cell inoculation
Description: FIG. 10. Xenografts of 786-O Vhl−/− human ccRCC cells in mice. Male 7-8 weeks old NOD scid gamma (NSG) mice were injected in the dorsal flank with a single cell suspension of 10^6 786-O cells. When tumor size reached 100 mm3 volume, mice were randomly divided in 3 groups, of 9/10 mice each. […] Tumor size was measured by a caliper every 2-3 days and volumes were calculated following the formula: shortest^2×largest×0.52. Mice were sacrificed when tumor volume average of the control group reached an end point established based on ethical procedures. Arrow marks the beginning of the treatment.
Male 7-8 weeks old NOD scid gamma (NSG) mice were injected in the dorsal flank with a single cell suspension of […] 786-O cells. When tumor size reached 100 mm^3 volume, mice were randomly divided in 3 groups, of 9/10 mice each. […] Tumor size was measured by a caliper every 2-3 days and volumes were calculated following the formula: shortest 2×largest×0.52. Mice were sacrificed when tumor volume average of the control group reached an end point established according to ethical procedures

[8] = test system: retina hemangioblastomas; conditions: cited from earlier work
[9] = test system: hemangioblastoma primary cell cultures from VHL patients; conditions: both at 100 μM, 72 hours
Description: HeLa 9XHRE cells were stably transfected with a HREluc reporter carrying nine copies in tandem of the hypoxia responsive element (HRE) followed by luciferase gene, and were cultured in DMEM (Dulbecco's Modified Eagle Medium, Gibco, Grand Island, N.Y., USA) supplemented with 10% fetal bovine serum (FBS; Gibco). To induce hypoxic conditions, HeLa cells were cultured with 100 μM desferrioxamine (DFO) (chemical hypoxia). […] Primary cultures of CNS hemangioblastoma were obtained according to the previously described by Albiñana et al., Orphanet J Rare Diseases, 2015, 10: 118.
The viability of hemangioblastoma and HeLa 9XHRE cells was measured with a CellTiter-Glo Luminescent Cell Viability Assay (Promega, Madison, Wis., USA). This is a homogeneous method to determine the number of viable cells in culture based on quantitation of the ATP present, which signals the presence of metabolically active cells. […] After treatment, plates were equilibrated to room temperature for 30 min before the addition of 100 μl of Cell Titer-Glo reagent (Lysis buffer, Ultra-Glo Recombinant Luciferase, Luciferine and Mg2+). Luminescence was measured using a Glomax Multidetection System (Promega).

[10] = test system: BAX and CASP9 mRNA in hemangioblastoma cells; test: Real-time RT-PCR of proapoptotic genes; assay type: cell-based, human; conditions: 100 μM, 72 h; HB26 and HB11 hemangioblastoma cell culture
Description: Total cellular RNA was extracted from hemangioblastoma cells using a Nucleo Spin RNA kit (Macherey-Nagel, Düren, Germany). One microgram of total RNA was reverse-transcribed in a final volume of 20 μl with the First Strand cDNA Synthesis Kit (Roche, Mannheim, Germany) using random primers. SYBR Green PCR system (BioRad, Hercules, Calif., USA) was used to carry out real-time PCR with an iQ5 system. Primers used for qPCR were: […]

[11] = test system: human ccRCC Vhl−/− 786-O cell line; test: Cell viability measure (CellTiter-Glo); assay type: cell-based; conditions: 72 hours, 0 to 250 μM
Description: as §2, with “Endothelial cell lines (HUVECs and HMECs), human ccRCC Vhl−/− 786-O cell line, and primary cultures hemangioblastomas from patients (Hb14 and 18) were seeded in triplicate onto a 96-well plate (2×10^3 per well). […] Cell viability” for “Cell viability”

[12] = test system: HMEC; test: Cell viability measure (CellTiter-Glo); assay type: cell-based, human
Description: as §2, with “Endothelial cell lines (HUVECs and HMECs), human ccRCC Vhl−/− 786-O cell line, and primary cultures hemangioblastomas from patients (Hb14 and 18) were seeded in triplicate onto a 96-well plate (2×10^3 per well). […] Cell viability” for “Cell viability”

[13] = test system: HUVEC; test: Cell viability measure (CellTiter-Glo); assay type: cell-based, human
Description: as §2, with “Endothelial cell lines (HUVECs and HMECs), human ccRCC Vhl−/− 786-O cell line, and primary cultures hemangioblastomas from patients (Hb14 and 18) were seeded in triplicate onto a 96-well plate (2×10^3 per well). […] Cell viability” for “Cell viability”

Q: Which β2/β1 selectivity ratio [1] does the source give for `COc1ccc(OC)c(C(O)C(C)NC(C)(C)C)c1` (racemic) [butoxamine, DL-erythro-α-(2,5-dimethoxyphenyl)-β-t-butyl aminopropanol hydrochloride] here?
A: at least 17

Q: Which results are given for `CC(C)NCC(O)COc1ccc(CC(N)=O)cc1` (stereo not shown) [Atenolol]?
A: luciferase activity induced by hypoxia (HIF transcriptional activity) [2]: less significant; luciferase activity induced by hypoxia (HIF transcriptional activity) ([2]; listed as atenolol): hardly reduced the hypoxia stimulation

Q: With `CC(C)NCC(O)COc1cccc2ccccc12` (stereo not shown) [Propranolol] as the compound, how does the hemangiosphere formation [3] read?
A: hemangiospheres are disrupted; also recorded: the spheres appear disaggregated

Q: And the “cell migration (closure of the discontinuity)” value [4]?
A: delay the closure of the discontinuity; also recorded: delay cell migration

Q: And the “tubulogenesis (number of closed structures)” value [5]?
A: dramatically decreased; also recorded: significantly inhibit the tubulogenesis

Q: What about the “luciferase activity induced by hypoxia (HIF transcriptional activity)” value (“luciferase activity induced by hypoxia” for short) [2] of the same compound?
A: dampened; also recorded: prevented hypoxia stimulation

Q: And the “luciferase activity induced by hypoxia” value ([2]; listed as propranolol)?
A: extremely reduced

Q: And the “viability (ATP content) of the VHL−/− cells” value [6]?
A: decrease, in a dose-dependent manner and with higher specificity

Q: What about the “decrease of the size tumor versus vehicle treated mice” value [7] of the same compound?
A: around 30%

Q: What about the “tumor growth during the clinical trial” value ([8]; 120 mg a day, 12 months, 7 VHL patients) of the same compound?
A: did not grow in any case

Q: What about the visual acuity ([8]; 120 mg a day, 12 months) of the same compound?
A: in some cases visual acuity increased

Q: What about the side effect ([8]; 120 mg a day) of the same compound?
A: Low blood pressure

Q: And the “exudates from the hemangioblastomas” value ([8]; 2 cases, between 3 and 6 months of treatment)?
A: disappeared completely

Q: Which “effect on viability compared with propranolol” value [9] does the source give for `Cc1ccc(OCC(O)C(C)NC(C)C)c2c1CCC2` [ICI 118,551, erythro-D,L-1(methylinden-4-yloxy)-3-isopropylaminobutan-2-ol] here?
A: superior to propranolol

Q: What about the “Bax mRNA expression (RT-qPCR)” value [10] of the same compound?
A: significantly upregulated; also recorded: increased

Q: And the “Caspase 9 mRNA expression (RT-qPCR)” value [10]?
A: significantly upregulated; also recorded: increased

Q: And the hemangiosphere formation [3]?
A: hemangiospheres are disrupted; also recorded: the spheres appear disaggregated

Q: And the “cell migration (closure of the discontinuity)” value [4]?
A: delay the closure of the discontinuity; also recorded: delay cell migration

Q: What about the “tubulogenesis (number of closed structures)” value [5] of the same compound?
A: dramatically decreased; also recorded: significantly inhibit the tubulogenesis

Q: What about the “luciferase activity induced by hypoxia” value [2] of the same compound?
A: reduced practically to “0”

Q: What about the “luciferase activity induced by hypoxia” value ([2]; listed as ICI) of the same compound?
A: prevented hypoxia stimulation

Q: What about the “luciferase activity induced by hypoxia” value ([2]; listed as ICI118,551) of the same compound?
A: extremely reduced

Q: And the “hypoxia stimulation induced by DFO (relative luciferase activity)” value ([2]; 50 or 100 μMolar, 24 h, DFO 100 μMolar simultaneously)?
A: inhibits the hypoxia stimulation induced by DFO

Q: What about the “effect on HIF luciferase activity compared with propranolol” value ([2]; equal dose) of the same compound?
A: clearly superior to propranolol

Q: What about the “viability (ATP content) of the VHL−/− cells” value [6] of the same compound?
A: decrease, in a dose-dependent manner and with higher specificity

Q: What about the viability at 100 µM ([6]; Homo sapiens, Haemangioblastoma (HB) cells, 100 μM (FIG. 11)) of the same compound?
A: 20%

Q: And the LD50 [11]?
A: 100 µM

Q: What about the decrease in viability ([12]; HMEC-1, 100 μM (FIG. 11)) of the same compound?
A: 55%

Q: What about the LD50 ([12]; HMEC, 72 hours, 0 to 250 μM) of the same compound?
A: around 150 μM

Q: What about the decrease in viability ([13]; 100 μM (FIG. 11)) of the same compound?
A: 80%

Q: And the LD50 ([13]; 72 hours, 0 to 250 μM)?
A: around 150 μM

Q: And the “decrease of the size tumor versus vehicle treated mice” value [7]?
A: around 30%

Q: And the β2/β1 selectivity ratio [1]?
A: at least 50

— US11730707B2, “Compounds for treating von Hippel-Lindau disease” (CONSEJO SUPERIOR DE INVESTIGACIONES CIENTÍFICAS, priority 2017, dated 2023)
